According to patent US4038401A, “Novel indole derivative” (John Wyeth & Brother Limited, priority 1976, dated 1977):
Where two headings read alike, the source gives them in different places.

Legend:
rats = format: in vivo, rat; details: for Duration of sedation: 50 mg/kg; for Increase in comparative sedation: oral 10, 25 or 50 mg/kg, perphenazine and haloperidol rated at 10
Procedure: Twelve rats of each type were split into […] and dosed orally with 10, 25 or 50 mg/kg of the test compound in a vehicle comprising hydroxymethylcellulose (0.5%) in (0.9% saline). Each rat was housed singly, after dosing and observed closely for 2 hours, then intermittently for a further four hours, behavioural changes being noted.
The animals were left at least 72 hours before re-dosing to ensure the disappearance of residual hypotensive and sedative effects.

in vivo = details: mouse
[1] = test system: rats rendered hypertensive; test: Anti-hypertensive activity in renal hypertensive rats (systolic pressure); format: in vivo, rat; details: 12 rats
Procedure: Anti-hypertensive activity is determined by the following procedure:
Male or female rats are rendered hypertensive by applying a figure of 8 ligature around one kidney and contralateral nephrectomy. Blood pressure stabilises at a hypertensive level after 6 weeks. Systolic pressure is measured indirectly using an E and M Pneumatic Tail Pulse Transducer and a Devices M2 recorder. A control group of rats is run with each group reacted with drug. Each group usually consists of six rats. Drugs are usually administered by the IP or oral routes. Pressures are read prior to drug administration and at 2 and 24 hours thereafter.
Blood pressure is expressed as % of control values at x hours after an oral dose of 25 mg/kg. In the test 12 rats were used instead of the usual 6.

[2] = Hypotensive and anti-hypertensive activity (statement in words); format: in vivo; details: compared with indoramin
laboratory animals = test: Toxicity and sedation, tests in laboratory animals (statement in words); details: compared with indoramin
[3] = normotensive rat (male and female)
[4] = renal hypertensive rat (female)
[5] = spontaneous hypertensive rat (male)
[6] = 2 hours after oral dose of 25 mg/kg
[7] = 6 hours after oral dose of 25 mg/kg
[8] = 24 hours after oral dose of 25 mg/kg

SMILES: O=C(NC1CCN(CCCC(=O)c2c[nH]c3ccccc23)CC1)c1ccccc1 [4-Benzamido-1-[4-(indol-3-yl)-4-oxobutyl]piperidine]
- Duration of sedation (rats; [3]): 6 h
- Duration of sedation (rats; [4]): 6 h
- Duration of sedation (rats; [5]): 6 h
- Approximate sedative potency ratio (rats; [3]): 1
- Increase in comparative sedation (rats; normotensive rats): 1
- Approximate sedative potency ratio (rats; [4]): 1
- Increase in comparative sedation (rats; renal hypertensive rats): 2
- Approximate sedative potency ratio (rats; [5]): 1
- Increase in comparative sedation (rats; spontaneously hypertensive rats): 1
- LD50 (in vivo; ip): 542 mg/kg
- LD50 at 24 h (in vivo; ip): 1000 mg/kg
- LD50 (in vivo; po): > 4000 mg/kg
- LD50 at 24 h (in vivo; po): > 4000 mg/kg
- Blood pressure expressed as % of control values [1, 6]: 60.9 % of control values
- Blood pressure expressed as % of control values [1, 7]: 62.0 % of control values
- Blood pressure expressed as % of control values [1, 8]: 99.0 % of control values
- hypotensive and anti-hypertensive activity [2]: comparable to that of indoramin
- sedation (laboratory animals): much less sedative
- toxicity (laboratory animals): much less toxic

SMILES: O=C(NC1CCN(CCc2c[nH]c3ccccc23)CC1)c1ccccc1 [Indoramin, 3-[2(4-benzamidopiperid-1-xl)ethyl] indole, reference compound]
- Blood pressure expressed as % of control values [1, 6]: 78.0 % of control values
- Blood pressure expressed as % of control values [1, 7]: 76.0 % of control values
- Blood pressure expressed as % of control values [1, 8]: 98.0 % of control values

SMILES: O=C(CCCN1CCC(O)(c2ccc(Cl)cc2)CC1)c1ccc(F)cc1 [haloperidol, reference compound]
- Sedation rating of comparison tranquillisers (rats; rats, reference rating of the scale): 10

SMILES: OCCN1CCN(CCCN2c3ccccc3Sc3ccc(Cl)cc32)CC1 [perphenazine, reference compound]
- Sedation rating of comparison tranquillisers (rats; rat, in vivo): 10
